The results in this text go back to patent US20240270809A1, “ORAL GLP RECEPTOR AGONISTS” (priority 2020, published 2024).

Usually Emax stands for the greatest response seen or fitted, relative to the assay's reference.

The target of test [1] is T1, human GLP1 receptor (Homo sapiens, UniProt P43220).
T1 construct: expressed in transfected cells; host or cells: HEK cells, BacMam virus transduction
Nature of the test: cAMP accumulation assay, functional agonism of human GLP1 receptor. In kind it is cell-based. The following applies: HEK cells infected with human GLP1 receptor BacMam virus, HTRF cAMP; for Emax: HEK293, read-out: Human GLP-1R agonist cAMP Emax; for EC50: read-out: Human GLP-1R agonist cAMP pEC50 (converted). How it is done:
(§1) CAMP production upon agonist stimulation of human GLP2 or GLP1 receptor was assessed utilizing HiRange cAMP kit (Cisbio). In brief, HEK cells were infected with either human GLP2 or GLP1 receptor BacMam virus for 24 hours and frozen for later use in the assay. […] Cells were prepared in the assay buffer (HBSS (Lonza) supplemented with 0.5 mM IBMX (Tocris)). After 45 min incubation at 37° C., the reaction was stopped by addition of the HTRF detection reagents in the lysis buffer provided in the kit.
A general note: Cyclic AMP is a second messenger, typically raised through Gs and lowered through Gi signalling.

Test [2] addresses T2, human GLP2 receptor (Homo sapiens, UniProt O95838).
T2 construct: expressed in transfected cells; host or cells: HEK cells, BacMam virus transduction
T2 sequence (O95838 1-553): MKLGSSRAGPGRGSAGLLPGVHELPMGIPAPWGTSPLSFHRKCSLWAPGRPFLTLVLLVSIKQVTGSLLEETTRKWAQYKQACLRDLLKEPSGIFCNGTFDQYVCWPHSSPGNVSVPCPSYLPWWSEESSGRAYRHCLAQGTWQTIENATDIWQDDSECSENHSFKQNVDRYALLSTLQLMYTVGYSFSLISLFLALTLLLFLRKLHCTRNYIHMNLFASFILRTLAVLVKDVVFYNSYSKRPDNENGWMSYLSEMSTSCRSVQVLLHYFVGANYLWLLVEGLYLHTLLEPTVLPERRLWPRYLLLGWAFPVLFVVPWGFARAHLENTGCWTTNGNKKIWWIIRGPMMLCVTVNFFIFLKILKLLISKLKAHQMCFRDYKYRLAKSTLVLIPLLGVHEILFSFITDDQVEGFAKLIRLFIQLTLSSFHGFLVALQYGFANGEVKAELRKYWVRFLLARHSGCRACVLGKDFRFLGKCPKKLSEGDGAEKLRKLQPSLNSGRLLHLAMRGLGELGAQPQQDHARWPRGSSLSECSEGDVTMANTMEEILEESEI
Put plainly: cAMP accumulation assay, functional agonism of human GLP2 receptor. It is filed as cell-based. The following applies: HEK cells infected with human GLP2 receptor BacMam virus, HTRF cAMP; for Emax: HEK293, read-out: Human GLP-2R agonist cAMP Emax; for EC50: read-out: Human GLP-2R agonist cAMP pEC50 (converted). The method, then:
as §1

Positions of bridges follow the written chain, without caps; N, C: chain ends. Non-standard residues stand in square brackets, D forms with d. Residues, ends and D or L forms follow the SMILES beside them. *: point of attachment. Malonyl(2,2-Me2,histaminyl) = CC(C)(C(=O)NCCc1cnc[nH]1)C(=O)*; Ala(1H-tetrazol-5-yl) = N[C@@H](Cc1nnn[nH]1)C(=O)O; αMePhe(2-F) = C[C@](N)(Cc1ccccc1F)C(=O)O; αMeL = CC(C)C[C@](C)(N)C(=O)O; Nle = CCCC[C@H](N)C(=O)O; Aib = CC(C)(N)C(=O)O

T1 sequence (P43220 24-463): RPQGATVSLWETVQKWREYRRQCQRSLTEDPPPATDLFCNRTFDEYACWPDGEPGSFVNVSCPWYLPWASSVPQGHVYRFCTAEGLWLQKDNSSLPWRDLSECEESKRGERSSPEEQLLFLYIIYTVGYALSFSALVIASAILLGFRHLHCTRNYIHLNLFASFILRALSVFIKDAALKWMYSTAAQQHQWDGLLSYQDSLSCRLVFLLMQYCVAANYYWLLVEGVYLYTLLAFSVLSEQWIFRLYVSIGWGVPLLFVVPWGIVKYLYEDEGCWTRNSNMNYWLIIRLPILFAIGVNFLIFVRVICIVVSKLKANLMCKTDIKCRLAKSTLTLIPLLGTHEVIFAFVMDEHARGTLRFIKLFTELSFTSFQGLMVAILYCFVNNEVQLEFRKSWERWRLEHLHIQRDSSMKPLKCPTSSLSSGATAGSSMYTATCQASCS

For `CCCC[C@H](NC(=O)[C@H](CCC(=O)O)NC(=O)[C@@H]1CC(=O)NCCCC[C@H](NC(=O)[C@H](Cc2nn[nH]n2)NC(=O)C(C)(C)C(=O)NCCc2c[nH]cn2)C(=O)N[C@@H](CO)C(=O)N[C@@H](Cc2ccccc2)C(=O)N[C@@H](CO)C(=O)N1)C(=O)N[C@H](Cc1ccccc1)C(=O)N[C@H]1CCCCNC(=O)C[C@@H](C(=O)N[C@@H](CCCCN)C(=O)N[C@@H](C)C(=O)N[C@@H](C)C(=O)NC(C)(C)C(=O)N[C@@H](CC(=O)O)C(=O)N[C@@H](Cc2ccccc2)C(=O)N[C@H](C(=O)N[C@H]2CCC(=O)NCCCC[C@@H](C(=O)N[C@H]3CCC(=O)NCCCC[C@@H](C(N)=O)NC(=O)[C@H]([C@@H](C)O)NC(=O)[C@H]([C@@H](C)CC)NC(=O)[C@H](CCCCN)NC3=O)NC(=O)[C@H]([C@@H](C)CC)NC(=O)[C@H](CC(C)C)NC(=O)[C@H](Cc3c[nH]c4ccccc34)NC2=O)[C@@H](C)CC)NC(=O)[C@H](CC(=O)O)NC(=O)[C@H](CC(C)C)NC(=O)[C@H]([C@@H](C)CC)NC1=O` [Example 42] ({Malonyl(2,2-Me2,histaminyl)}-[Ala(1H-tetrazol-5-yl)]KSFSDE[Nle][dF]KILDDKAA[Aib]DFIEWLIKEKITK-NH2; lactam 2-6, 10-14, 22-26, 27-31; C-terminus assumed), in test [1], the maximum response (Emax) was found to be 94.1% and the EC50 is 0.2 nM. In test [2], the maximal response (Emax) worked out at 96.4% and the EC50 is 0.398 nM.
In the case of `CCCC[C@H](NC(=O)[C@H](CCC(=O)O)NC(=O)[C@@H]1CC(=O)NCCCC[C@H](NC(=O)[C@H](CCC(=O)O)NC(=O)C(C)(C)NC(=O)[C@@H](N)Cc2c[nH]cn2)C(=O)N[C@@H](CO)C(=O)N[C@@](C)(Cc2ccccc2F)C(=O)N[C@@H](CO)C(=O)N1)C(=O)N[C@H](Cc1ccccc1)C(=O)N[C@H](C(=O)N[C@@](C)(CC(C)C)C(=O)N[C@@H](CC(C)C)C(=O)N[C@@H](CC(=O)O)C(=O)N[C@H]1CCC(=O)NCCCC[C@@H](C(=O)N[C@@H](CC(=O)O)C(=O)N[C@@H](Cc2ccccc2)C(=O)N[C@H](C(=O)N[C@H]2CCC(=O)NCCCC[C@@H](C(=O)N[C@H](C(=O)N[C@@H](CCCCN)C(N)=O)[C@@H](C)O)NC(=O)[C@H]([C@@H](C)CC)NC(=O)[C@H](CC(C)C)NC(=O)[C@H](Cc3c[nH]c4ccccc34)NC2=O)[C@@H](C)CC)NC(=O)[C@H](C)NC(=O)[C@H](C)NC(=O)[C@H](CCCCN)NC1=O)[C@@H](C)O` [Example 32] (H-H[Aib]EKS[αMePhe(2-F)]SDE[Nle][dF]T[αMeL]LDEKAAKDFIEWLIKTK-NH2; lactam 4-8, 16-20, 24-28 (inferred); C-terminus assumed), in test [1], the Emax came to 97.8% and the EC50 is 0.0251 nM. In test [2], the maximum response (Emax) amounted to 91.3% and the EC50 is 0.794 nM.
In the case of `CCCC[C@H](NC(=O)[C@H](CCC(=O)O)NC(=O)[C@@H]1CC(=O)NCCCC[C@H](NC(=O)[C@H](CC(=O)O)NC(=O)C(C)(C)NC(=O)[C@@H](N)Cc2c[nH]cn2)C(=O)N[C@@H](CO)C(=O)N[C@@H](Cc2ccccc2)C(=O)N[C@@H](CO)C(=O)N1)C(=O)N[C@H](Cc1ccccc1)C(=O)N[C@H]1CCC(=O)NCCCC[C@@H](C(=O)N[C@@H](CCCCN)C(=O)N[C@@H](C)C(=O)N[C@@H](C)C(=O)NC(C)(C)C(=O)N[C@@H](CC(=O)O)C(=O)N[C@@H](Cc2ccccc2)C(=O)N[C@H](C(=O)N[C@H]2CCC(=O)NCCCC[C@@H](C(=O)N[C@H](C(=O)N[C@@H](CCCCN)C(N)=O)[C@@H](C)O)NC(=O)[C@H]([C@@H](C)CC)NC(=O)[C@H](CC(C)C)NC(=O)[C@H](Cc3c[nH]c4ccccc34)NC2=O)[C@@H](C)CC)NC(=O)[C@H](CC(=O)O)NC(=O)[C@H](CC(C)C)NC(=O)[C@H]([C@@H](C)CC)NC1=O` [Example 5] (H-H[Aib]DKSFSDE[Nle][dF]EILDKKAA[Aib]DFIEWLIKTK-NH2; lactam 4-8, 12-16, 24-28 (inferred); N-terminus and C-terminus assumed), the Emax was determined as 92.5% in test [1] and 104% in test [2].
Turning to `CCCC[C@H](NC(=O)[C@H](CCC(=O)O)NC(=O)[C@@H]1CC(=O)NCCCC[C@H](NC(=O)[C@H](CC(=O)O)NC(=O)C(C)(C)C(=O)NCCc2c[nH]cn2)C(=O)N[C@@H](CO)C(=O)N[C@@](C)(Cc2ccccc2F)C(=O)N[C@@H](CO)C(=O)N1)C(=O)N[C@H](Cc1ccccc1)C(=O)N[C@H](C(=O)N[C@@](C)(CC(C)C)C(=O)N[C@@H](CC(C)C)C(=O)N[C@@H](CC(=O)O)C(=O)N[C@H]1CCC(=O)NCCCC[C@@H](C(=O)N[C@@H](CC(=O)O)C(=O)N[C@@H](Cc2ccccc2)C(=O)N[C@H](C(=O)N[C@H]2CCC(=O)NCCCC[C@@H](C(=O)N[C@H](C(=O)N[C@@H](CCCCN)C(N)=O)[C@@H](C)O)NC(=O)[C@H]([C@@H](C)CC)NC(=O)[C@H](CC(C)C)NC(=O)[C@H](Cc3c[nH]c4ccccc34)NC2=O)[C@@H](C)CC)NC(=O)[C@H](C)NC(=O)[C@H](C)NC(=O)[C@H](CCCCN)NC1=O)[C@@H](C)O` [Example 33] ({Malonyl(2,2-Me2,histaminyl)}-DKS[αMePhe(2-F)]SDE[Nle][dF]T[αMeL]LDEKAAKDFIEWLIKTK-NH2; lactam 2-6, 14-18, 22-26; C-terminus assumed), the Emax in test [1] was determined as 98.1%; in test [2] it was 102%. Also, the EC50 is 0.0251 nM in test [1] and 0.0316 nM in test [2].
Turning to `CCCC[C@H](NC(=O)[C@H](CCC(=O)O)NC(=O)[C@@H]1CCCCNC(=O)CC[C@H](NC(=O)[C@H](CC(=O)O)NC(=O)C(C)(C)NC(=O)[C@@H](N)Cc2c[nH]cn2)C(=O)N[C@@H](CO)C(=O)N[C@@H](Cc2ccccc2)C(=O)N[C@@H](CO)C(=O)N1)C(=O)N[C@H](Cc1ccccc1)C(=O)N[C@H](C(=O)N[C@H](C(=O)N[C@@H](CC(C)C)C(=O)N[C@@H](CC(=O)O)C(=O)N[C@@H](CC(C)C)C(=O)N[C@@H](CCCCN)C(=O)N[C@@H](C)C(=O)N[C@@H](C)C(=O)N[C@@H](CCCCN)C(=O)N[C@@H](CC(=O)O)C(=O)N[C@@H](Cc1ccccc1)C(=O)N[C@H](C(=O)N[C@@H](CC(N)=O)C(=O)N[C@@H](Cc1c[nH]c2ccccc12)C(=O)N[C@@H](CC(C)C)C(=O)N[C@H](C(=O)N[C@@H](CCC(N)=O)C(=O)N[C@H](C(=O)N[C@H]1CCC(=O)NCCCC[C@@H](C(N)=O)NC(=O)[C@H]([C@@H](C)O)NC(=O)[C@H]([C@@H](C)CC)NC1=O)[C@@H](C)O)[C@@H](C)CC)[C@@H](C)CC)[C@@H](C)CC)[C@@H](C)O` [Example 104] (H-H[Aib]DESFSKE[Nle][dF]TILDLKAAKDFINWLIQTEITK-NH2; lactam 4-8, 30-33 (inferred); C-terminus assumed), the maximum response (Emax) in test [1] is 88.3%; in test [2], 102%. Moreover, the EC50 is 3.98 nM in test [1] and 0.501 nM in test [2].
For `CCCC[C@H](NC(=O)[C@H](CCC(=O)O)NC(=O)[C@@H]1CC(=O)NCCCC[C@H](NC(=O)[C@H](CC(=O)O)NC(=O)C(C)(C)NC(=O)[C@@H](N)Cc2c[nH]cn2)C(=O)N[C@@H](CO)C(=O)N[C@@H](Cc2ccccc2)C(=O)N[C@@H](CO)C(=O)N1)C(=O)N[C@H](Cc1ccccc1)C(=O)N[C@H](C(=O)N[C@H](C(=O)N[C@@H](CC(C)C)C(=O)N[C@@H](CC(=O)O)C(=O)N[C@@H](CC(C)C)C(=O)N[C@@H](CCCCN)C(=O)N[C@@H](C)C(=O)N[C@@H](C)C(=O)N[C@@H](CCCCN)C(=O)N[C@@H](CC(=O)O)C(=O)N[C@@H](Cc1ccccc1)C(=O)N[C@H](C(=O)N[C@@H](CC(N)=O)C(=O)N[C@@H](Cc1c[nH]c2ccccc12)C(=O)N[C@@H](CC(C)C)C(=O)N[C@H](C(=O)N[C@@H](CCC(N)=O)C(=O)N[C@H](C(=O)N[C@@H](CCCCN)C(=O)N[C@H](C(=O)N[C@H](C(=O)N[C@@H](CC(=O)O)C(N)=O)[C@@H](C)O)[C@@H](C)CC)[C@@H](C)O)[C@@H](C)CC)[C@@H](C)CC)[C@@H](C)CC)[C@@H](C)O` [Example 84] (H-H[Aib]DKSFSDE[Nle][dF]TILDLKAAKDFINWLIQTKITD-NH2; lactam 4-8; C-terminus assumed), in test [1], the Emax turned out to be 87.3% and the EC50 was 10 nM. Also, in test [2], the maximum response (Emax) stood at 103% and the EC50 was 0.0501 nM.
